From patent US20180228804A1, “COMBINATION THERAPY OF HBV AND HDV INFECTION” (MYR GMBH, priority 2014, published 2018)

Legend:
[1] = tested on: HepaRG cells infected with HBV/HDV containing serum; experiment: Number of HBcAg-positive HepaRG cells on day 6 post infection by HBcAg-specific IF, Myrcludex B with or without entecavir; type: cell-based; conditions: immunochemistry
[2] = tested on: HBV; conditions: after two years of treatment; cited from earlier work

| Structure (SMILES) | effect of entecavir on the inhibition of HBV receptor by Myrcludex B in vitro [1] | HBsAg seroconversion [2] |
| --- | --- | --- |
| C=C1[C@H](CO)[C@@H](O)C[C@@H]1n1cnc2c(=O)[nH]c(N)nc21 [entecavir] | did not improve |  |
| C[C@H](Cn1cnc2c(N)ncnc21)OCP(=O)(O)O [tenofovir] |  | 4 % of patients |
